Measured values taken from patent US20050197350A1, “Novel quinoline, tetrahydroquinazoline, and pyrimidine derivatives and methods of treatment related to the use thereof” (TAISHO PHARMACEUTICAL CO., LTD., priority 2003, published 2005).

Each molecule was assayed on MCH receptors (assay: MCH receptor activity class (method not given)). Conditions: class by percent of control at 10^-7 M or IC50.
With CCCCCC(=O)N[C@H]1CC[C@@H](Nc2nccc(N(C)C)n2)CC1 [compound 258] the class was 3 (Class 3 The value of percent of control at 10^−7 M was more than 60% or the value of IC50 was more than 200 nM.). CN(C)c1ccnc(N[C@H]2CC[C@@H](NC(=O)c3ccc(I)cc3)CC2)n1 [compound 259] was tested, and the class was 3 (Class 3 The value of percent of control at 10^−7 M was more than 60% or the value of IC50 was more than 200 nM.). With CSc1ncccc1C(=O)N[C@H]1CC[C@@H](Nc2nccc(N(C)C)n2)CC1 [compound 260] the class was 3 (Class 3 The value of percent of control at 10^−7 M was more than 60% or the value of IC50 was more than 200 nM.). With Cc1ccc(C(=O)N[C@H]2CC[C@@H](Nc3nccc(N(C)C)n3)CC2)cc1[N+](=O)[O-] [compound 261, N-(cis-4-{[4-(dimethylamino)pyrimidin-2-yl]amino}cyclohexyl)-4-methyl-3-nitrobenzamide] the class was 2 (Class 2: The value of percent of control at 10^−7 M was from 40% to 60% or the value of IC′50 was from 50 nM to 200 nM.). CN(C)c1ccnc(N[C@H]2CC[C@@H](NC(=O)c3cccc([N+](=O)[O-])c3)CC2)n1 [compound 262, N-(cis-4-{[4-(dimethylamino)pyrimidin-2-yl]amino}cyclohexyl)-3-nitrobenzamide] was tested, and the class was 1 (Class 1: The value of percent of control at 10^−7 M was less than 40% or the value of IC50 was less than 50 nM.). In the case of CN(C)c1ccnc(N[C@H]2CC[C@@H](NC(=O)Cc3ccccc3)CC2)n1 [compound 263], the class is reported as 3 (Class 3 The value of percent of control at 10^−7 M was more than 60% or the value of IC50 was more than 200 nM.). CN(C)c1ccnc(N[C@H]2CC[C@@H](NC(=O)C3C[C@H]3c3ccccc3)CC2)n1 (stereo partly drawn) [compound 264] was tested, and the class was 3 (Class 3 The value of percent of control at 10^−7 M was more than 60% or the value of IC50 was more than 200 nM.). CN(C)c1ccnc(N[C@H]2CC[C@@H](NC(=O)c3ccc4c(c3)OCO4)CC2)n1 [compound 265] was tested, and the class was 3 (Class 3 The value of percent of control at 10^−7 M was more than 60% or the value of IC50 was more than 200 nM.). Cc1cccc(C(=O)N[C@H]2CC[C@@H](Nc3nccc(N(C)C)n3)CC2)c1 [compound 268, N-(cis-4-{[4-(dimethylamino)pyrimidin-2-yl]amino}cyclohexyl)-3-methylbenzamide] was tested, and the class was 2 (Class 2: The value of percent of control at 10^−7 M was from 40% to 60% or the value of IC′50 was from 50 nM to 200 nM.). In the case of Cc1ccc(C(=O)N[C@H]2CC[C@@H](Nc3nccc(N(C)C)n3)CC2)cc1 [compound 269], the class is reported as 3 (Class 3 The value of percent of control at 10^−7 M was more than 60% or the value of IC50 was more than 200 nM.). CN(C)c1ccnc(N[C@H]2CC[C@@H](NC(=O)c3cccs3)CC2)n1 [compound 270] was tested, and the class was 3 (Class 3 The value of percent of control at 10^−7 M was more than 60% or the value of IC50 was more than 200 nM.). For CN(C)c1ccnc(N[C@H]2CC[C@@H](NC(=O)Cc3cccs3)CC2)n1 [compound 271], the class was 3 (Class 3 The value of percent of control at 10^−7 M was more than 60% or the value of IC50 was more than 200 nM.). For CN(C)c1ccnc(N[C@H]2CC[C@@H](NC(=O)c3cccc(OC(F)(F)F)c3)CC2)n1 [compound 272, N-(cis-4-{[4-(dimethylamino)pyrimidin-2-yl]amino}cyclohexyl)-3-(trifluoromethoxy)benzamide], the class was 1 (Class 1: The value of percent of control at 10^−7 M was less than 40% or the value of IC50 was less than 50 nM.). CN(C)c1ccnc(NC2CCC(NC(=O)OCc3ccccc3)CC2)n1 (stereo not drawn) [compound 273] was tested, and the class was 3 (Class 3 The value of percent of control at 10^−7 M was more than 60% or the value of IC50 was more than 200 nM.). In the case of CN(C)c1ccnc(NC2CCC(NC(=O)OCc3ccc([N+](=O)[O-])cc3)CC2)n1 (stereo not drawn) [compound 274], the class is reported as 3 (Class 3 The value of percent of control at 10^−7 M was more than 60% or the value of IC50 was more than 200 nM.). With Cc1cc(C(=O)N[C@H]2CC[C@@H](Nc3nccc(N(C)C)n3)CC2)ccc1Br [compound 275, 4-bromo-N-(cis-4-{[4-(dimethylamino)pyrimidin-2-yl]amino}cyclohexyl)-3-methylbenzamide] the class was 1 (Class 1: The value of percent of control at 10^−7 M was less than 40% or the value of IC50 was less than 50 nM.). With CN(C)c1ccnc(N[C@H]2CC[C@@H](NC(=O)c3cccc(I)c3)CC2)n1 [compound 276, N-(cis-4-{[4-(dimethylamino)pyrimidin-2-yl]amino}cyclohexyl)-3-iodobenzamide] the class was 1 (Class 1: The value of percent of control at 10^−7 M was less than 40% or the value of IC50 was less than 50 nM.). CN(C)c1ccnc(N[C@H]2CC[C@@H](NC(=O)c3cccc(Cl)c3F)CC2)n1 [compound 277] was tested, and the class was 3 (Class 3 The value of percent of control at 10^−7 M was more than 60% or the value of IC50 was more than 200 nM.). Cc1ccc(C(=O)N[C@H]2CC[C@@H](Nc3nccc(N(C)C)n3)CC2)c(F)c1F [compound 278] was tested, and the class was 3 (Class 3 The value of percent of control at 10^−7 M was more than 60% or the value of IC50 was more than 200 nM.). CN(C)c1ccnc(N[C@H]2CC[C@@H](NC(=O)c3ccc(F)cc3Cl)CC2)n1 [compound 279] was tested, and the class was 3 (Class 3 The value of percent of control at 10^−7 M was more than 60% or the value of IC50 was more than 200 nM.). With CN(C)c1ccnc(N[C@H]2CC[C@@H](NC(=O)c3ccc(F)c(Cl)c3F)CC2)n1 [compound 280] the class was 3 (Class 3 The value of percent of control at 10^−7 M was more than 60% or the value of IC50 was more than 200 nM.). CN(C)c1ccnc(N[C@H]2CC[C@@H](NC(=O)CSc3ccccc3)CC2)n1 [compound 281] was tested, and the class was 3 (Class 3 The value of percent of control at 10^−7 M was more than 60% or the value of IC50 was more than 200 nM.). For CN(C)c1ccnc(N[C@H]2CC[C@@H](NC(=O)c3cccc(C(F)(F)F)c3F)CC2)n1 [compound 282], the class was 3 (Class 3 The value of percent of control at 10^−7 M was more than 60% or the value of IC50 was more than 200 nM.). CN(C)c1ccnc(N[C@H]2CC[C@@H](NC(=O)c3cc(C(F)(F)F)ccc3F)CC2)n1 [compound 283] was tested, and the class was 3 (Class 3 The value of percent of control at 10^−7 M was more than 60% or the value of IC50 was more than 200 nM.). COc1cccc(CC(=O)N[C@H]2CC[C@@H](Nc3nccc(N(C)C)n3)CC2)c1 [compound 285] was tested, and the class was 3 (Class 3 The value of percent of control at 10^−7 M was more than 60% or the value of IC50 was more than 200 nM.). CN(C)c1ccnc(N[C@H]2CC[C@@H](NC(=O)Cc3ccc(F)cc3)CC2)n1 [compound 286] was tested, and the class was 3 (Class 3 The value of percent of control at 10^−7 M was more than 60% or the value of IC50 was more than 200 nM.). For COc1ccc(CC(=O)N[C@H]2CC[C@@H](Nc3nccc(N(C)C)n3)CC2)cc1 [compound 287], the class was 3 (Class 3 The value of percent of control at 10^−7 M was more than 60% or the value of IC50 was more than 200 nM.). With Cc1cc(C(=O)N[C@H]2CC[C@@H](Nc3nccc(N(C)C)n3)CC2)c(C(F)(F)F)o1 [compound 288] the class was 3 (Class 3 The value of percent of control at 10^−7 M was more than 60% or the value of IC50 was more than 200 nM.). In the case of Cc1cc(C(=O)N[C@H]2CC[C@@H](Nc3nccc(N(C)C)n3)CC2)c(C)o1 [compound 289, N-(cis-4-{[4-(dimethylamino)pyrimidin-2-yl]amino}cyclohexyl)-2,5-dimethyl-3-furamide], the class is reported as 2 (Class 2: The value of percent of control at 10^−7 M was from 40% to 60% or the value of IC′50 was from 50 nM to 200 nM.). With CCOc1ccccc1C(=O)N[C@H]1CC[C@@H](Nc2nccc(N(C)C)n2)CC1 [compound 290] the class was 3 (Class 3 The value of percent of control at 10^−7 M was more than 60% or the value of IC50 was more than 200 nM.). With CN(C)c1ccnc(N[C@H]2CC[C@@H](NC(=O)c3ccc(F)c(Cl)c3)CC2)n1 [compound 291, 3-chloro-N-(cis-4-{[4-(dimethylamino)pyrimidin-2-yl]amino}cyclohexyl)-4-fluorobenzamide] the class was 1 (Class 1: The value of percent of control at 10^−7 M was less than 40% or the value of IC50 was less than 50 nM.). For Cc1ccc(C(=O)N[C@H]2CC[C@@H](Nc3nccc(N(C)C)n3)CC2)cc1F [compound 292], the class was 3 (Class 3 The value of percent of control at 10^−7 M was more than 60% or the value of IC50 was more than 200 nM.). For CN(C)c1ccnc(N[C@H]2CC[C@@H](NC(=O)CC3CCCC3)CC2)n1 [compound 293], the class was 3 (Class 3 The value of percent of control at 10^−7 M was more than 60% or the value of IC50 was more than 200 nM.). In the case of COc1cc(OC)cc(C(=O)N[C@H]2CC[C@@H](Nc3nccc(N(C)C)n3)CC2)c1 [compound 294, N-(cis-4-{[4-(dimethylamino)pyrimidin-2-yl]amino}cyclohexyl)-3,5-dimethoxybenzamide], the class is reported as 1 (Class 1: The value of percent of control at 10^−7 M was less than 40% or the value of IC50 was less than 50 nM.). For CN(C)c1ccnc(N[C@H]2CC[C@@H](NC(=O)c3ccc(C#N)cc3)CC2)n1 [compound 295], the class was 3 (Class 3 The value of percent of control at 10^−7 M was more than 60% or the value of IC50 was more than 200 nM.). With CN(C)c1ccnc(N[C@H]2CC[C@@H](NC(=O)c3cc(C(F)(F)F)cc(C(F)(F)F)c3)CC2)n1 [compound 296, N-(cis-4-{[4-(dimethylamino)pyrimidin-2-yl]amino}cyclohexyl)-3,5-bis(trifluoromethyl)benzamide] the class was 1 (Class 1: The value of percent of control at 10^−7 M was less than 40% or the value of IC50 was less than 50 nM.). With CN(C)c1ccnc(N[C@H]2CC[C@@H](NC(=O)/C=C/c3ccc([N+](=O)[O-])cc3)CC2)n1 [compound 297] the class was 3 (Class 3 The value of percent of control at 10^−7 M was more than 60% or the value of IC50 was more than 200 nM.). In the case of CN(C)c1ccnc(N[C@H]2CC[C@@H](NC(=O)Cc3ccccc3Br)CC2)n1 [compound 298], the class is reported as 3 (Class 3 The value of percent of control at 10^−7 M was more than 60% or the value of IC50 was more than 200 nM.). Cc1cc(C(=O)N[C@H]2CC[C@@H](Nc3nccc(N(C)C)n3)CC2)ccc1F [compound 299, N-(cis-4-{[4-(dimethylamino)pyrimidin-2-yl]amino}cyclohexyl)-4-fluoro-3-methylbenzamide] was tested, and the class was 1 (Class 1: The value of percent of control at 10^−7 M was less than 40% or the value of IC50 was less than 50 nM.).
